Like-named read-outs stand apart in the source and are kept apart here.
Columns and labels:
[1] = biological target: T1, LSD1 (Homo sapiens, UniProt O60341); assay: LSD1 enzyme inhibition assay (H3K4me2 substrate, Amplex Red/HRP fluorescence)
[2] = biological target: T1, LSD1; details: cited from earlier work
[3] = biological target: T1, LSD1; design: method as in PMID 30448189; details: cited from earlier work

Structure (SMILES)	IC50 [1] [µM]	melting point [°C]	also measured
COc1ccc(/C=C/c2ccc(C(=O)NO)cc2)cc1OC [Compound 30]	0.816	197 to 198	–
COc1cc(F)c(/C=C/c2ccc(C(=O)NO)cc2)cc1OC	–	159 to 160	–
COc1cc(F)c(/C=C/c2ccc(/C=C/C(=O)NO)cc2)cc1OC [Compound 25]	3.31	185 to 186	–
O=C(O)c1ccc(CN2CCC(CN[C@@H]3C[C@H]3c3ccccc3)CC2)cc1 [GSK2879552]	–	–	IC50 ([2]; inhibition of LSD1): 0.02 µM
O=C(NO)c1ccc(/C=C/c2cc(F)cc(F)c2)cc1 [Compound 31]	1.3	266 to 267	–
COc1cc(/C=C/c2ccc(C(=O)NO)cc2)cc(OC)c1 [Compound 29]	0.692	–	–
O=C(NO)c1ccc(/C=C/c2ccc3c(c2)CCO3)cc1 [Compound 33]	1.93	193 to 194	–
COc1cc(Br)c(/C=C/c2ccc(C(=O)NO)cc2)cc1OC	–	163 to 164	–
COc1ccc(/C=C/c2ccc(/C=C/C(=O)NO)cc2)cc1OC [Compound 24]	4.16	205 to 206	–
COc1cc(Br)c(/C=C/c2ccc(/C=C/C(=O)NO)cc2)cc1OC [Compound 27]	3.98	120 to 121	–
C#CCN(C)Cc1ccccc1 [pargyline]	–	–	inhibitory effect on LSD1 ([2]; MAO inhibitors bonding covalently with FAD): no significant inhibitory effect; selectivity ([2]; MAO inhibitors): poor selectivity
N/C(=N\O)c1cccc(/C=C/c2ccnc(-c3cc(F)ccc3O)c2)c1 [Compound 22]	–	–	binding site by enzyme kinetics studies [3]: FAD region
COc1cc(/C=C/c2ccc(/C=C/C(=O)NO)cc2)cc(OC)c1 [Compound 26]	5.18	149 to 150	–
Cc1ccc(-c2ncc(OC[C@@H]3CCNC3)cc2-c2ccc(C#N)cc2)cc1 [GSK-354]	–	–	IC50 ([2]; reversible LSD1 inhibitor): 0.09 µM

Reference: paper PMC6943670, “Investigating the Binding Mode of Reversible LSD1 Inhibitors Derived from Stilbene Derivatives by 3D-QSAR, Molecular Docking, and Molecular Dynamics Simulation” (Molecules, 2019)
